Measurements taken from patent publication US20140315889A1, “HYDROXAMATE DERIVATIVES FOR HDAC INHIBITOR, AND THE PHARMACEUTICAL COMPOSITION COMPRISING THEREOF” (CHONG KUN DANG PHARMACEUTICAL CORP., priority 2011, published 2014).
Read-outs that look alike come from different tables or passages of the source.

Tests used:
Type in all cases: biochemical
HDAC5 = HDAC5 (Homo sapiens, UniProt Q9UQL6); assay: HDAC enzyme activity test, HDAC5; settings: Table 11, eleven HDAC isozymes; read-out: Inhibition ability (IC50) against HDAC5
Protocol: (§1) Then, 0.3 μg of enzyme and 10 μM of substrate per well were added, reacted at 30° C. for 60 minutes. Thereto, Fluor de Lys® Developer II (BML-KI176) was added and reacted for 30 minutes. […] From the data, the respective IC50 were calculated by GraphPad Prism 4.0 program.

HDAC11 = target: T1, HDAC11 (Homo sapiens, UniProt Q96DB2); assay: HDAC enzyme activity test, HDAC11; settings: Table 11, eleven HDAC isozymes; read-out: Inhibition ability (IC50) against HDAC11
T1 sequence (Q96DB2 1-347): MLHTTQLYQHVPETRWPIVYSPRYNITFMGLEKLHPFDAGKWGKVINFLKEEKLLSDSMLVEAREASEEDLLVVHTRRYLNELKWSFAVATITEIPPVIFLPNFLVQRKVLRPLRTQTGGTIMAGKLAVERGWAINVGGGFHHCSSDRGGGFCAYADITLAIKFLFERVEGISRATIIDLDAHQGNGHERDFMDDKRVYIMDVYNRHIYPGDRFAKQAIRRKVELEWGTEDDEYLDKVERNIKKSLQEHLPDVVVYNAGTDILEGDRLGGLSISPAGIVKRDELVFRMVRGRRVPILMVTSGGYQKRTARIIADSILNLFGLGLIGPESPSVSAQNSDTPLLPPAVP
Protocol: as §1

HDAC10 = target: T2, HDAC10 (Homo sapiens, UniProt Q969S8); assay: HDAC enzyme activity test, HDAC10; settings: Table 11, eleven HDAC isozymes; read-out: Inhibition ability (IC50) against HDAC10
T2 sequence (Q969S8 1-669): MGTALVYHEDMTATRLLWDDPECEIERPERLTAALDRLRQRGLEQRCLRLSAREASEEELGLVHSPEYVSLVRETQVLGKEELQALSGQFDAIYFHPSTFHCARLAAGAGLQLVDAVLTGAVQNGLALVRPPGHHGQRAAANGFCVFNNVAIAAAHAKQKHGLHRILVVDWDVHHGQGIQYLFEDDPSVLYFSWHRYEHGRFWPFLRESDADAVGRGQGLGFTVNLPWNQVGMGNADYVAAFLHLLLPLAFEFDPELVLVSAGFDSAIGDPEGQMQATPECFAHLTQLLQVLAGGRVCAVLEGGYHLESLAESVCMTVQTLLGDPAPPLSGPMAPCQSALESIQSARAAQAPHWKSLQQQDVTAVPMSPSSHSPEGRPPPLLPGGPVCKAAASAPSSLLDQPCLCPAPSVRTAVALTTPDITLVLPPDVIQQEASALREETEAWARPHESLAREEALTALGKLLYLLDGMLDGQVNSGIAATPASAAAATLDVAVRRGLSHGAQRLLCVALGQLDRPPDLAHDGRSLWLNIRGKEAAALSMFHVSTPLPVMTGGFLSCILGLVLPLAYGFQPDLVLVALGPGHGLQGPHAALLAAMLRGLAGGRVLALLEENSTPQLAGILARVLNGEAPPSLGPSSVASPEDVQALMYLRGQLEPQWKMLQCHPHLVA
Protocol: as §1

human recombinant HDAC6 = target: T3, human recombinant HDAC6 (Homo sapiens, UniProt Q9UBN7); assay: HDAC enzyme activity test, HDAC6; settings: for Selectivity for HDAC6, HD1/HD6: ratio HDAC1 IC50 / HDAC6 IC50
T3 construct: purchased Calibiochem Co. (so in the source) 382180
T3 sequence (Q9UBN7 1-1215): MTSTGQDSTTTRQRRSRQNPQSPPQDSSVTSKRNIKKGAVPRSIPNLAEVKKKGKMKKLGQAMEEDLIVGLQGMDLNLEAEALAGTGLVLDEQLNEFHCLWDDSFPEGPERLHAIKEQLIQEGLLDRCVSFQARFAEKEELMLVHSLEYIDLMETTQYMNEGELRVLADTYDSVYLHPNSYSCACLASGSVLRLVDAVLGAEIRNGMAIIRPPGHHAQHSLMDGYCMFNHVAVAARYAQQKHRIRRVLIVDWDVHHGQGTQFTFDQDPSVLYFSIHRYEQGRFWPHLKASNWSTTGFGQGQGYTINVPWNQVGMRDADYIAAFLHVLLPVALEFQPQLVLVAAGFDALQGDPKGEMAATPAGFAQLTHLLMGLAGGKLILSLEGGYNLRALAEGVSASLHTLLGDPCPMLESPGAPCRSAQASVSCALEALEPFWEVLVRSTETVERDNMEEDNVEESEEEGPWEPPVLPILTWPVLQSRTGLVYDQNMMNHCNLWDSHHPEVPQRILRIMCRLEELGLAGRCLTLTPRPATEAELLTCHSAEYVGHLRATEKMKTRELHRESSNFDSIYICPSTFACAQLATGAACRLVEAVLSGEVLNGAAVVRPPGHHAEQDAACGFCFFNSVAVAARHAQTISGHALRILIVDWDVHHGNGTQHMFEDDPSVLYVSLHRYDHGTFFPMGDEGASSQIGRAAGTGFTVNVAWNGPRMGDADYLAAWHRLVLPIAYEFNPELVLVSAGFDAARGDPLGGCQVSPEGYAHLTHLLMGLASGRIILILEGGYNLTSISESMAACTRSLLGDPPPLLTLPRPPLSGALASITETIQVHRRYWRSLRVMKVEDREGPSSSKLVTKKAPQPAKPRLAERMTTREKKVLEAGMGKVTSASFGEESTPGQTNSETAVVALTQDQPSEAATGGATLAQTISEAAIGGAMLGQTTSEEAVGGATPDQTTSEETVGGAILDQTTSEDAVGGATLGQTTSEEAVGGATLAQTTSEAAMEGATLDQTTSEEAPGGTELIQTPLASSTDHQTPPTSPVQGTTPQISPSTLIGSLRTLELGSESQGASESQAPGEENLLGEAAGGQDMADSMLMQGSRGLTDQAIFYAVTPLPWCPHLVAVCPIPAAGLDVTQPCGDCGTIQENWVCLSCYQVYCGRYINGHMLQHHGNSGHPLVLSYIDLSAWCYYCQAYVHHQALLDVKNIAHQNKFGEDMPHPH
Protocol: as §1

[1] = Table 11, eleven HDAC isozymes, read-out: Inhibition ability (IC50) against HDAC6
[2] = Table 12, read-out: Inhibition ability (IC50) HDAC6

Chain of HDAC5 (Q9UQL6 whole entry, species assumed): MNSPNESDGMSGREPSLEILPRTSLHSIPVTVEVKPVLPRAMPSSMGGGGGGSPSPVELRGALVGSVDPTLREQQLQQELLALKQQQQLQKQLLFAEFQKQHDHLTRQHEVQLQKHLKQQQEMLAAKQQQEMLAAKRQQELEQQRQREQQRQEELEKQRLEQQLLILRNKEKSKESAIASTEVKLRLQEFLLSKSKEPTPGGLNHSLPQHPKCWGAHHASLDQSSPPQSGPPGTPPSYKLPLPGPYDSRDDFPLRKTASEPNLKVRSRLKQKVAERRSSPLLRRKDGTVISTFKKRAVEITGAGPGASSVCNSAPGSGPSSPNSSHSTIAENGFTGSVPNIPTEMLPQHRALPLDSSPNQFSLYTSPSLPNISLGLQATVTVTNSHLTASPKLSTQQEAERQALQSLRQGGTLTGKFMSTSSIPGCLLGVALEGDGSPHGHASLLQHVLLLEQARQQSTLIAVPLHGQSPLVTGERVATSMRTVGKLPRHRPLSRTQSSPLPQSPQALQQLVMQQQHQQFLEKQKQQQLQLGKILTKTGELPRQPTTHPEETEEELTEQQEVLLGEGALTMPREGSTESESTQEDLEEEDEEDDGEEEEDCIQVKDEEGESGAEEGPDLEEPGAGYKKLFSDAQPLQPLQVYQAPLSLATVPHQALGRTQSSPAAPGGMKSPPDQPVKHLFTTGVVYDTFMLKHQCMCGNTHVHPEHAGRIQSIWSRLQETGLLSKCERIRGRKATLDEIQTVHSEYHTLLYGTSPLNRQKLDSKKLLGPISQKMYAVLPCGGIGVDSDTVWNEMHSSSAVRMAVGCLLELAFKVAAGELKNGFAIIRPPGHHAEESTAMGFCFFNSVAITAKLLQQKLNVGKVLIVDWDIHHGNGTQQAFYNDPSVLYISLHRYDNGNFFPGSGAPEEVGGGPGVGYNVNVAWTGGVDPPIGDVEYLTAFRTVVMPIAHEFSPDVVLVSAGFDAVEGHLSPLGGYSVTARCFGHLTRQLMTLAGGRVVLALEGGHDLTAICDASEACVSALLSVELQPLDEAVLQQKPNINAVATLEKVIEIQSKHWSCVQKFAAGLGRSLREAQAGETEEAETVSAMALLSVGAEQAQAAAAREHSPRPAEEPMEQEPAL

CC1(C)CC(=O)c2c(C(F)(F)F)nn(Cc3ccc(C(=O)NO)cc3)c2C1 [Compound 237, 4-((6,6-dimethyl-4-oxo-3-(trifluoromethyl)-4,5,6,7-tetrahydro-1H-indazol-1-yl)methyl)-N-hydroxybenzamide]
IC50 (HDAC5): 16000 nM | IC50 (HDAC11): 33900 nM | IC50 (HDAC10): 76100 nM | IC50 (human recombinant HDAC6; [1]): 32.2 nM | Selectivity for HDAC6, HD1/HD6 (human recombinant HDAC6; Table 12): 219.3 | IC50 (human recombinant HDAC6; [2]): 17.8 nM | selectivity for HDAC6 over HDAC1 (human recombinant HDAC6; from the data of Table 12): more than 219 times

CN1CCN(C(=O)N(CCCCCCC(=O)NO)c2ccc(-c3ccc4cnn(C)c4c3)cc2)CC1 [CKD-581, reference compound]
IC50 (HDAC5): 1.09 nM | IC50 (HDAC11): 1.52 nM | IC50 (HDAC10): 2.66 nM | IC50 (human recombinant HDAC6; [1]): 2.39 nM

CN1CCN(CC2CCc3c(c4cc(F)ccc4n3Cc3ccc(C(=O)NO)cc3)C2=O)CC1 (stereo not shown) [Compound 142, 4-((6-fluoro-3-((4-methylpiperazin-1-yl)methyl)-4-oxo-1,2,3,4-tetrahydrocarbazol-9-yl)methyl)-N-hydroxybenzamide]
IC50 (HDAC5): 4270 nM | IC50 (HDAC11): 11100 nM | IC50 (HDAC10): 37000 nM | IC50 (human recombinant HDAC6; [1]): 3.55 nM | Selectivity for HDAC6, HD1/HD6 (human recombinant HDAC6; Table 12): 568.3 | IC50 (human recombinant HDAC6; [2]): 4.7 nM

O=C(NO)c1ccc(Cn2c3c(c4ccccc42)C(=O)C(CN2CCOCC2)CC3)cc1 (stereo not shown) [Compound 87, N-hydroxy-4-((3-(morpholinomethyl)-4-oxo-1,2,3,4-tetrahydrocarbazol-9-yl)methyl)benzamide]
IC50 (HDAC5): 5080 nM | IC50 (HDAC11): 37500 nM | IC50 (HDAC10): 15300 nM | IC50 (human recombinant HDAC6; [1]): 13.1 nM | Selectivity for HDAC6, HD1/HD6 (human recombinant HDAC6; Table 12): 411.8 | IC50 (human recombinant HDAC6; [2]): 7.45 nM | IC50 (human recombinant HDAC6; data of Table 11, read-out: IC50 against HDAC6): 13 nM | selectivity for HDAC6 over HDAC1 (human recombinant HDAC6; from the data of Table 11): more than 800 times

O=C(NO)c1ccc(Cn2c3c(c4ccccc42)C(=O)N(CCN2CCOCC2)CC3)cc1 [Compound 249, N-hydroxy-4-((2-(2-morpholinoethyl)-1-oxo-1,2,3,4-tetrahydropyrido[4,3-b]indol-5-yl)methyl)benzamide]
IC50 (HDAC5): 4620 nM | IC50 (HDAC11): 5530 nM | IC50 (HDAC10): 53000 nM | IC50 (human recombinant HDAC6; [1]): 5.09 nM | Selectivity for HDAC6, HD1/HD6 (human recombinant HDAC6; Table 12): 162.2 | IC50 (human recombinant HDAC6; [2]): 21.3 nM
